Results from ChEMBL document CHEMBL5038625, “Application of the dual-tail approach for the design and synthesis of novel Thiopyrimidine-Benzenesulfonamide hybrids as selective carbonic anhydrase inhibitors” (Eur J Med Chem, 2022).

Tested on: MCF7
Test: Induction of apoptosis in human MCF cells assessed as viable cells measured after 48 hrs by Annexin-V-FITC/propidium iodide staining based flow cytometry (reference value: 98.15%)
Format: functional

SMILES: COc1ccc(OC)c(-c2nc(SCC(=O)c3ccc(Br)cc3)nc(Nc3ccc(S(N)(=O)=O)cc3)c2C#N)c1
- Activity: 88.17%
